# From paper PMC11249646, “Small-Molecule Disruptors of the Interaction between Calcium- and Integrin-Binding Protein 1 and Integrin αIIbβ3 as Novel Antiplatelet Agents” (ACS Pharmacology & Translational Science, 2024)
# Read-outs that look alike come from different tables or passages of the source.
# Legend:
# [1] = target: T1, GST-CIB1 : F-scrambled peptide (Homo sapiens, UniProt Q99828); assay: FP scrambled-peptide counter screen, 1536-well format; assay type: binding; settings: for Curve Class (counterscreen) / COUNTERSCREEN Curve Class: qHTS curve class; for IC50: read-out: IC50 [μM] (counterscreen)
# T1 construct: made in house; host or cells: BL-21 plus RIL cells (E. coli)
# T1 sequence (Q99828 1-191): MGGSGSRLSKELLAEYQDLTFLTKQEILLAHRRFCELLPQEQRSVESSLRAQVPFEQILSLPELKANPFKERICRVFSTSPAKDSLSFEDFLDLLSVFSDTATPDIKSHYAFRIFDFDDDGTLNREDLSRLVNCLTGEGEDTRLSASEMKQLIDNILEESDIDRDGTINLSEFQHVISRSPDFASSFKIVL
# [2] = target: T2, CIB1 and αIIb interaction (CIB1-GST : F-αIIb peptide) (Homo sapiens, UniProt Q99828); assay: FP assay, 1536-well qHTS format (primary and confirmatory screen); assay type: binding; settings: for Curve Class (confirmatory screen) / CONFIRMATORY SCREEN Curve Class: qHTS curve class
# T2 construct: made in house; host or cells: BL-21 plus RIL cells (E. coli)
# T2 sequence (Q99828 1-191): T1 sequence (Q99828 1-191)
# [3] = Table S3, counterscreen, a negative sign marks inhibitory curves
# [4] = Table S3, counterscreen, negative = inhibition
# [5] = Table S3, confirmatory screen, a negative sign marks inhibitory curves
# [6] = Table S3, confirmatory screen, negative = inhibition
# [7] = qHTS FP screen hits, Table S2, negative = inhibition
# [8] = qHTS FP screen hits, Table S2, one class per curve where COUNT > 1, negative sign = inhibitory curve
# [9] = qHTS FP screen hits, Table S2, read-out: IC50
# [10] = scrambled-peptide counterscreen
# [11] = confirmatory screen, negative sign = inhibitory curve
# [12] = qHTS primary screen hits, Table S2, negative = inhibition
# [13] = qHTS primary screen hits, Table S2, negative sign = inhibitory curve
# [14] = qHTS primary screen hits, Table S2, read-out: IC50
# [15] = counterscreen, negative sign = inhibitory curve
# [16] = confirmatory screen, read-out: IC50 [μM] (confirmatory screen)
# [17] = qHTS primary screen hits, Table S2, negative sign = inhibitory curve, several classes where COUNT > 1
# [18] = Table S3, confirmatory screen, YES/NO call
# [19] = Table S3, confirmatory screen, read-out: IC50 [μM] (confirmatory screen)
SMILES,"Curve Class (counterscreen) [1, 3]","Efficacy (%) (counterscreen) [1, 4]","IC50 ([1]; Table S3, counterscreen)","Curve Class (confirmatory screen) [2, 5]","Efficacy (%) (confirmatory screen) [2, 6]","Efficacy (%) [2, 7]","Curve Class [2, 8]","IC50 [2, 9]","Efficacy (%) [2, 12]","IC50 [2, 14]",also measured
O=C(O)c1csc(-n2nc(-c3ccc(F)c(F)c3)c3cccnc32)n1 [NCGC00356667-01],3,64%,89.1 µM,4,-16%,-32%,-1.2,3.5 µM,–,–,–
Cc1ccc(C(=O)Nc2ccc(S(=O)(=O)O)c3cc(S(=O)(=O)O)cc(S(=O)(=O)O)c23)cc1NC(=O)c1cccc(NC(=O)Nc2cccc(C(=O)Nc3cc(C(=O)Nc4ccc(S(=O)(=O)O)c5cc(S(=O)(=O)O)cc(S(=O)(=O)O)c45)ccc3C)c2)c1 [NCGC00163318-03],–,–,–,–,–,–,–,–,-22%,0.7 µM,"COUNTERSCREEN Efficacy (%) [1, 10]: 16%; COUNTERSCREEN Confirm? ([1]; scrambled-peptide counterscreen, YES/NO call): YES; COUNTERSCREEN Curve Class [1, 10]: 4; CONFIRMATORY SCREEN Confirm? ([2]; confirmatory screen, YES/NO call): YES; CONFIRMATORY SCREEN Curve Class [2, 11]: -1.4; CONFIRMATORY SCREEN Efficacy (%) ([2]; confirmatory screen, negative = inhibition): -15%; IC50 ([2]; confirmatory screen, read-out: CONFIRMATORY SCREEN IC50): 7.9 µM; Curve Class [2, 13]: -1.4"
CCCC(=O)c1cc(O)c(O)cc1O [NCGC00091839-03],–,–,–,–,–,-92%,–,105 µM,–,–,"Efficacy (%) (counterscreen) ([1]; counterscreen): -107%; Curve Class (counterscreen) [1, 15]: -1.1; IC50 ([1]; counterscreen): 31.6 µM; Efficacy (%) (confirmatory screen) ([2]; confirmatory screen): -145%; Confirm? (confirmatory screen) ([2]; confirmatory screen, YES/NO): YES; Curve Class (confirmatory screen) [2, 11]: -1.1; IC50 [2, 16]: 35.5 µM"
CC(C)c1nc(Nc2nc3ccccc3o2)nc2c1CCCC2.O=C(O)C(F)(F)F [NCGC00188040-01],-2.4,-36%,22.4 µM,4,-29%,–,–,–,-19%,6.3 µM,"Confirm? (counterscreen) ([1]; Table S3, counterscreen, YES/NO call): YES; Curve Class [2, 13]: -1.4"
CC(OC(=O)c1ccc(S(C)(=O)=O)c([N+](=O)[O-])c1)C(=O)NC1C2CC3CC(C2)CC1C3 (centres unmarked) [NCGC00188535-01],–,–,–,–,–,–,–,–,-30%,1.8 µM,"COUNTERSCREEN Efficacy (%) ([1]; counterscreen): -20%; COUNTERSCREEN Curve Class ([1]; counterscreen): 4; CONFIRMATORY SCREEN Efficacy (%) ([2]; confirmatory screen): -32%; CONFIRMATORY SCREEN Curve Class ([2]; confirmatory screen): 4; Curve Class [2, 17]: -1.2"
CC1=C[C@@H]2[C@H]([C@@H](O)C[C@@]3(C)[C@H]2C[C@@H](C)[C@]3(O)C(=O)CO)[C@@]2(C)Cc3cnn(-c4ccccc4)c3C=C12 [NCGC00242505-01],–,–,–,–,–,–,–,–,-30%,37.6 µM,"Efficacy (%) (counterscreen) ([1]; counterscreen): -41%; Curve Class (counterscreen) [1, 15]: -1.2; IC50 ([1]; counterscreen): 12.6 µM; Efficacy (%) (confirmatory screen) ([2]; confirmatory screen): -46%; Confirm? (confirmatory screen) ([2]; confirmatory screen, YES/NO): YES; Curve Class (confirmatory screen) [2, 11]: -1.4; IC50 [2, 16]: 15.8 µM"
CC1CCC2(C1)N=C(Nc1nc3ccccc3o1)NC1=C2C(=O)CCC1.O=C(O)C(F)(F)F (centres unmarked) [NCGC00188039-01],–,–,–,–,–,–,–,–,-25%,31.6 µM,"COUNTERSCREEN Efficacy (%) ([1]; counterscreen): -20%; COUNTERSCREEN Curve Class ([1]; counterscreen): 4; CONFIRMATORY SCREEN Efficacy (%) ([2]; confirmatory screen): -33%; CONFIRMATORY SCREEN Curve Class ([2]; confirmatory screen): 4; Curve Class [2, 13]: -2.4"
COc1ccccc1Nc1ccc2c(O)cc(S(=O)(=O)O)cc2c1.O=C(O)C(F)(F)F [NCGC00372954-01],-2.4,-89%,22.4 µM,-2.1,-93%,-41%,-2.2,35.5 µM,–,–,"Confirm? (confirmatory screen) [2, 18]: YES; IC50 [2, 19]: 25.1 µM"
Cc1ccc(CNc2ncnc3ccc(-c4ccc([C@@H](C)O)o4)cc23)o1 [NCGC00189251-01],–,–,–,–,–,–,–,–,–,–,"Efficacy (%) (counterscreen) ([1]; counterscreen): -36%; Curve Class (counterscreen) [1, 15]: -2.2; IC50 ([1]; counterscreen): 39.8 µM; Efficacy (%) (confirmatory screen) ([2]; confirmatory screen): -58%; Confirm? (confirmatory screen) ([2]; confirmatory screen, YES/NO): YES; Curve Class (confirmatory screen) [2, 11]: -1.2; IC50 [2, 16]: 28.2 µM"
O=C(O)C(F)(F)F.O=C1Nc2ccccc2/C1=N/NC(=S)Nc1ccc(Oc2ccccc2)cc1 [NCGC00229524-01],-1.4,-38%,4 µM,-1.4,-29%,–,–,–,-25%,2.8 µM,"Confirm? (confirmatory screen) [2, 18]: YES; IC50 [2, 19]: 12.6 µM; Curve Class [2, 13]: -1.4"
COC(=O)c1ccc(O)c2ncc(-c3ccc(C(=O)N4CCNCC4)cc3)cc12.O=C(O)C(F)(F)F [NCGC00189509-01],–,–,–,–,–,–,–,–,-45%,28.2 µM,"COUNTERSCREEN Efficacy (%) ([1]; counterscreen): -25%; COUNTERSCREEN Curve Class ([1]; counterscreen): 4; CONFIRMATORY SCREEN Efficacy (%) ([2]; confirmatory screen): -16%; CONFIRMATORY SCREEN Curve Class ([2]; confirmatory screen): 4; Curve Class [2, 17]: -1.2"
COc1ccc(S(=O)(=O)Nc2cnccc2C(=O)Nc2nc(-c3ccccc3)cs2)cc1.O=C(O)C(F)(F)F [NCGC00344944-01],–,–,–,–,–,-52%,-2.2,39.8 µM,–,–,"Efficacy (%) (counterscreen) ([1]; counterscreen): -81%; Curve Class (counterscreen) [1, 15]: -2.2; IC50 ([1]; counterscreen): 44.7 µM; Efficacy (%) (confirmatory screen) ([2]; confirmatory screen): -81%; Confirm? (confirmatory screen) ([2]; confirmatory screen, YES/NO): YES; Curve Class (confirmatory screen) [2, 11]: -2.2"
C[C@@H]1CC[C@]2(C)C3(C)CC[C@@]2(OC3=O)[C@@]12C[C@H](c1ccoc1)OC2=O [NCGC00180662-03],-1.2,-44%,8.9 µM,-1.2,-44%,-33%,-1.2,10 µM,–,–,"Confirm? (confirmatory screen) [2, 18]: YES; IC50 [2, 19]: 7.1 µM"
Nc1ccc(O)c(C(=O)O)c1 [NCGC00016344-07],–,154%,–,4,-27%,–,–,–,-58%,–,"Curve Class [2, 17]: -2.2"
CN(C(=O)CN(CCO)CC(=O)N(C)C(C)(C)Cc1ccccc1)C(C)(C)Cc1ccccc1 [NCGC00016382-07],–,–,–,–,–,-59%,-3,28.2 µM,–,–,"Efficacy (%) (counterscreen) ([1]; counterscreen): -33%; Curve Class (counterscreen) [1, 15]: -2.4; IC50 ([1]; counterscreen): 70.8 µM; Efficacy (%) (confirmatory screen) ([2]; confirmatory screen): -52%; Confirm? (confirmatory screen) ([2]; confirmatory screen, YES/NO): YES; Curve Class (confirmatory screen) [2, 11]: -3; IC50 [2, 16]: 79.4 µM"
O=C(O)C(F)(F)F.O=S(=O)(NCc1nccs1)c1ccc(Nc2nc(-c3ccccc3)cs2)cc1 [NCGC00262383-01],-2.2,-83%,50.1 µM,-2.2,-80%,-60%,-2.2,50.1 µM,–,–,"Confirm? (confirmatory screen) [2, 18]: YES"
COc1ccc(-n2ncc3c2CCCC3NC(=O)c2ccccc2F)cc1.O=C(O)C(F)(F)F (centres unmarked) [NCGC00273507-01],4,13%,–,2.4,22%,–,–,–,-45%,39.8 µM,"Curve Class [2, 17]: -2.2"
